Test results as given in patent US10980876B2, “Conjugate vaccine targeting a disease-causing biological protein” (OSAKA UNIVERSITY, priority 2016, dated 2021).
Read-outs that look alike come from different tables or passages of the source.

How the values were obtained:
DPP4 epitope peptide [1] = settings: 4 administrations; blood at 11 weeks; FIG. 3
Experimental: For this test, the following three groups were prepared: an OSK-1-DPP4 conjugate group (100 μg/mouse), a KLH-DPP4 conjugate (20 μg/mouse) plus Alum (Alhydrogel 2% (InvivoGen) 1 mg/mouse) group and a KLH-DPP4 conjugate (20 μg/mouse) plus OSK-1 (100 μg/mouse) group. Test samples were intracutaneously administered to Balb/c mice 3 times at 2-week intervals and at 9 weeks after the start of the administration, 4 times in total. At 11 weeks after the start of the administration, blood samples were collected, and the titer of each IgG subclass of antibodies against the DPP4 epitope peptide was measured by ELISA.

DPP4 epitope peptide [2] = test system: DPP4 epitope peptide
Experimental: For this test, the following two groups were prepared: a physiological saline group and an OSK-1-DPP4 conjugate group (100 μg/mouse) (6 animals per group). Test samples were intracutaneously administered to Balb/c mice 3 times at 2-week intervals. Before the first administration and every 2 weeks until 8 weeks after the first administration, blood samples were collected, and the antibody titer against the DPP4 epitope peptide was measured by ELISA.
For this test, the following three groups were prepared: a KLH-DPP4 conjugate group (20 μg/mouse), an OSK-1-DPP4 conjugate group (100 μg/mouse) and an OSK-1-DPP4 conjugate (100 μg/mouse) plus Alum (Alhydrogel 2% (InvivoGen) 1 mg/mouse) group (2 animals per group). […] Before the first administration, every 2 weeks until 6 weeks after the first administration, and 12 weeks after the first administration, blood samples were collected, and the antibody titer against the DPP4 epitope peptide was measured by ELISA.
Six types of OSK-1-DPP4 conjugates containing different mouse DPP4 epitope peptides (SEQ ID NOs: 3, 5, 6, 8, 18 and 19) were intracutaneously administered to Balb/c mice at a dose of 100 μg per animal 3 times at 2-week intervals. Before the first administration and every 2 weeks after the first administration, blood samples were collected, and the antibody titer against each epitope peptide was measured by ELISA. […]

DPP4 = settings: OSK-1-DPP4-17 100 μg/mouse; KLH-DPP4-17 20 μg/mouse mixed with Alum 1 mg/mouse; 4 administrations; 21 weeks; FIG. 8
Experimental: To a KLH-DPP4-17 group of mice, KLH-DPP4-17 and Alum (Alhydrogel 2% (InvivoGen)) were intracutaneously administered as a mixture at doses of 20 μg/mouse and 1 mg/mouse, respectively. To an OSK-1-DPP4-17 group of mice, OSK-1-DPP4-17 was intracutaneously administered at a dose of 100 μg/mouse. In either group, the conjugate was intracutaneously administered to Balb/c mice 3 times at 2-week intervals, and the 4th administration was performed at 11 weeks after the first administration. At 21 weeks after the first administration, blood samples were collected, and the amount of serum IgE antibody against DPP4 was measured by ELISA.

B16F10 melanoma cells [3] = settings: vaccination once a week 4 times before implantation of B16F10 (1×10^5 cells/mouse)
Experimental: In addition, the adjuvant effect of the OSK-1 peptide on the antitumor effect of a WT1 peptide vaccine was also examined. For this test, the following four groups were prepared: a physiological saline group, a WT1 peptide (100 μg/mouse) plus poly(I:C) (InvivoGen; Poly(I:C) HMW VacciGrade, 50 μg/mouse) group, a WT1 peptide (100 μg/mouse) plus OSK-1 peptide (100 μg/mouse) group and an OSK-1-WT1 conjugate (350 μg/mouse) group (6 animals per group). The vaccines were administered to C57BL/6J mice once a week, 4 times in total. One week after the 4th administration, B16F10 melanoma cells (1×10^5 cells/mouse) were implanted into the dorsal skin. The vaccines were administered again one week after the cell implantation. The body weight and the diameter of the tumor were measured twice a week after the cell implantation. The diameter of the tumor was measured using a digital caliper, and the tumor volume was calculated by the formula: (major axis)×(minor axis)^2.

B16F10 melanoma cells [4] = settings: 350 μg/mouse, vaccination started on day of implantation of B16F10 (3×10^5 cells/mouse)
Experimental: The antitumor effect of the same OSK-1-WT1 conjugate as used in Reference Example 1 was assessed. For this test, the following four groups were prepared: a physiological saline group, a WT1 peptide (100 μg/mouse) plus poly(I:C) (InvivoGen; Poly (I:C) HMW VacciGrade, 50 μg/mouse) group, an OSK-1-WT1 conjugate (350 μg/mouse) group and a cisplatin (5 mg/kg) group (10 animals per group). B16F10 melanoma cells (3×10^5 cells/mouse) were implanted to C57BL/6J mice, and at the same day, the vaccines were intracutaneously administered into the dorsal skin. The day of cell implantation was designated as Day 0. The vaccines were administered on Day 7, Day 14, Day 21, Day 28 and Day 35. Twice a week after the cell implantation, the diameter of the tumor was measured using a digital caliper, and the tumor volume was calculated by the formula: (major axis)×(minor axis)^2.

Row | Substance | titer of each IgG subclass of antibodies against the DPP4 epitope peptide (DPP4 epitope peptide [1]) | antibody production against the DPP4 epitope peptide (antibody titer, ELISA) (DPP4 epitope peptide [2]; 100 μg/mouse intracutaneously 3 times at 2-week intervals, blood until 8 weeks, FIG. 1) | antibody production-inducing capability (antibody titer against the DPP4 epitope peptide) (DPP4 epitope peptide [2]; OSK-1-DPP4 100 μg/mouse, KLH-DPP4 20 μg/mouse, Alum 1 mg/mouse, 3 times at 2-week intervals, up to 12 weeks, FIG. 2) | IgE production against the target protein (serum IgE antibody against DPP4) (DPP4) | inhibitory effect on tumor growth (tumor volume) (B16F10 melanoma cells [3]; FIG. 4) | survival benefit (survival rate) (B16F10 melanoma cells [3]; FIG. 5) | inhibitory effect on tumor growth (tumor volume) (B16F10 melanoma cells [4]; FIG. 6) | survival benefit (survival rate) (B16F10 melanoma cells [4]; FIG. 7)
1 | Ac-ELKLIFLHRLKRLRKRLKRK-X-ENSTFESFG (X=ε-Acp) [OSK1-DPP4-17] | IgG2a and IgG2b, which are Th1-type IgG subclasses, were also produced at high levels in addition to IgG1 | antibody production against the DPP4 epitope peptide was observed | comparable to that of the KLH-DPP4 conjugate | no IgE production against the target protein was observed |  |  |  | 
2 | Ac-ELKLIFLHRLKRLRKRLKRK-X-RMFPNAPYL (X=ε-Acp) [OSK-1-WT1 conjugate] |  |  |  |  | the inhibitory effect on tumor growth and the survival benefit were observed | the inhibitory effect on tumor growth and the survival benefit were observed | modest, but the tumor volume was kept at lower levels than that of the physiological saline administration group (negative control) until Day 32 | comparable to those in the WT1 peptide plus poly(I:C) group and the cisplatin group
